Results published in ChEMBL document CHEMBL5724914, “Linking interpersonal differences in gut microbiota composition and drug biotransformation activity” (2024).

Columns and labels:
[1] = (§1) The drug is tested on Z-030 corresponding to mouse gut metagenome with ENA study accession number: PRJEB37062 and ENA sample accession number: ERS12561829 for biotransformation under anaerobic condition. The drug concentrations were measured over 9 timepoints collected between 0 and 24 hours of incubation by liquid-chromatography-coupled mass spectrometry (LC–MS); settings: 2 µM
[2] = as §1, with “Z-023” for “Z-030”, “to” for “to mouse gut”, “ERS12561822” for “ERS12561829”; settings: 2 µM
[3] = as §1, with “Z-021” for “Z-030”, “to” for “to mouse gut”, “ERS12561820” for “ERS12561829”; settings: 2 µM
[4] = as §1, with “Z-016” for “Z-030”, “ERS12561815” for “ERS12561829”; settings: 2 µM
[5] = as §1, with “Z-007” for “Z-030”, “rat” for “mouse”, “ERS12561807” for “ERS12561829”; settings: 2 µM
[6] = as §1, with “Z-001” for “Z-030”, “ERS12561801” for “ERS12561829”; settings: 2 µM
[7] = as §1, with “WLS-077” for “Z-030”, “human” for “mouse”, “ERS12561750” for “ERS12561829”; settings: 2 µM
[8] = as §1, with “WLS-069” for “Z-030”, “human” for “mouse”, “ERS12561748” for “ERS12561829”; settings: 2 µM
[9] = as §1, with “WLS-007” for “Z-030”, “human” for “mouse”, “ERS12561742” for “ERS12561829”; settings: 2 µM
[10] = human gut metagenome, 24 h, 2 µM
[11] = human gut metagenome, 24 h, 2 µM; remark: listed apart in the source
[12] = human gut metagenome, 24 h, 2 µM; remark: listed apart in the source
[13] = human gut metagenome, 24 h, 2 µM; remark: listed apart in the source
[14] = human gut metagenome, 24 h, 2 µM; remark: listed apart in the source
[15] = human gut metagenome, 24 h, 2 µM; remark: listed apart in the source
[16] = human gut metagenome, 24 h, 2 µM; remark: listed apart in the source
[17] = human gut metagenome, 24 h, 2 µM; remark: listed apart in the source
[18] = human gut metagenome, 24 h, 2 µM; remark: listed apart in the source
[19] = human gut metagenome, 24 h, 2 µM; remark: listed apart in the source
[20] = human gut metagenome, 24 h, 2 µM; remark: listed apart in the source
Also: call rule not given here.

Row | Bacterial Biotransformation [1] | Bacterial Biotransformation [2] | Bacterial Biotransformation [3] | Bacterial Biotransformation [4] | Bacterial Biotransformation [5] | Bacterial Biotransformation [6] | Bacterial Biotransformation [7] | Bacterial Biotransformation [8] | Bacterial Biotransformation [9] | Bacterial Biotransformation [10] | Bacterial Biotransformation [11] | Bacterial Biotransformation [12] | Bacterial Biotransformation [13] | Bacterial Biotransformation [14] | Bacterial Biotransformation [15] | Bacterial Biotransformation [16] | Bacterial Biotransformation [17] | Bacterial Biotransformation [18] | Bacterial Biotransformation [19] | Bacterial Biotransformation [20] | SMILES
1 | Compound NOT metabolized | Compound metabolized | Compound metabolized | Compound metabolized | Compound NOT metabolized | Compound metabolized | Compound NOT metabolized | Compound NOT metabolized | Compound metabolized | Compound NOT metabolized | Compound NOT metabolized | Compound metabolized | Compound metabolized | Compound NOT metabolized | Compound NOT metabolized | Compound NOT metabolized | Compound NOT metabolized | Compound metabolized | Compound NOT metabolized | Compound metabolized | Cc1ccccc1C(OCCN(C)C)c1ccccc1.O=C(O)CC(O)(CC(=O)O)C(=O)O (stereo not given) [ORPHENADRINE CITRATE]
2 | Compound NOT metabolized | Compound metabolized | Compound NOT metabolized | Compound NOT metabolized | Compound NOT metabolized | Compound NOT metabolized | Compound NOT metabolized | Compound metabolized | Compound metabolized | Compound metabolized | Compound metabolized | Compound metabolized | Compound metabolized | Compound NOT metabolized | Compound metabolized | Compound metabolized | Compound metabolized | Compound metabolized | Compound metabolized | Compound metabolized | CC(C)(C)N.CCC[C@H](N[C@@H](C)C(=O)N1[C@H](C(=O)O)C[C@@H]2CCCC[C@@H]21)C(=O)OCC [PERINDOPRIL ERBUMINE]
3 | Compound NOT metabolized | Compound NOT metabolized | Compound NOT metabolized | Compound NOT metabolized | Compound NOT metabolized | Compound NOT metabolized | Compound NOT metabolized | Compound NOT metabolized | Compound NOT metabolized | Compound NOT metabolized | Compound NOT metabolized | Compound NOT metabolized | Compound NOT metabolized | Compound metabolized | Compound NOT metabolized | Compound NOT metabolized | Compound metabolized | Compound metabolized | Compound NOT metabolized | Compound NOT metabolized | C=C[C@H]1CN2CC[C@H]1C[C@H]2[C@H](O)c1ccnc2ccc(OC)cc12.C=C[C@H]1CN2CC[C@H]1C[C@H]2[C@H](O)c1ccnc2ccc(OC)cc12.O.O.O=S(=O)(O)O [QUININE SULFATE]
4 | Compound NOT metabolized | Compound metabolized | Compound metabolized | Compound NOT metabolized | Compound NOT metabolized | Compound NOT metabolized | Compound NOT metabolized | Compound NOT metabolized | Compound NOT metabolized | Compound metabolized | Compound metabolized | Compound NOT metabolized | Compound metabolized | Compound NOT metabolized | Compound metabolized | Compound NOT metabolized | Compound NOT metabolized | Compound NOT metabolized | Compound NOT metabolized | Compound NOT metabolized | O=C(NC(Cc1cc(=O)[nH]c2ccccc12)C(=O)O)c1ccc(Cl)cc1 (stereo not given) [REBAMIPIDE]

Row | SMILES | Bacterial Biotransformation [1] | Bacterial Biotransformation [2] | Bacterial Biotransformation [3] | Bacterial Biotransformation [4] | Bacterial Biotransformation [5] | Bacterial Biotransformation [6] | Bacterial Biotransformation [7] | Bacterial Biotransformation [8] | Bacterial Biotransformation [9] | Bacterial Biotransformation [10] | Bacterial Biotransformation [11] | Bacterial Biotransformation [12] | Bacterial Biotransformation [13] | Bacterial Biotransformation [14] | Bacterial Biotransformation [15] | Bacterial Biotransformation [16] | Bacterial Biotransformation [17] | Bacterial Biotransformation [18] | Bacterial Biotransformation [19] | Bacterial Biotransformation [20]
5 | COc1ccc(Cc2nccc3cc(OC)c(OC)cc23)cc1OC [PAPAVERINE] | Compound NOT metabolized | Compound metabolized | Compound metabolized | Compound NOT metabolized | Compound NOT metabolized | Compound metabolized | Compound NOT metabolized | Compound metabolized | Compound metabolized | Compound metabolized | Compound metabolized | Compound metabolized | Compound metabolized | Compound metabolized | Compound metabolized | Compound metabolized | Compound metabolized | Compound metabolized | Compound NOT metabolized | Compound metabolized
6 | CC(=O)CCCCn1c(=O)c2c(ncn2C)n(C)c1=O [PENTOXIFYLLINE] | Compound NOT metabolized | Compound NOT metabolized | Compound NOT metabolized | Compound NOT metabolized | Compound NOT metabolized | Compound NOT metabolized | Compound NOT metabolized | Compound NOT metabolized | Compound NOT metabolized | Compound NOT metabolized | Compound NOT metabolized | Compound NOT metabolized | Compound NOT metabolized | Compound NOT metabolized | Compound NOT metabolized | Compound NOT metabolized | Compound metabolized | Compound NOT metabolized | Compound NOT metabolized | Compound metabolized
7 | CCCN1C[C@H](CSC)C[C@@H]2c3cccc4[nH]cc(c34)C[C@H]21.CS(=O)(=O)O [PERGOLIDE MESYLATE] | Compound NOT metabolized | Compound NOT metabolized | Compound metabolized | Compound NOT metabolized | Compound NOT metabolized | Compound NOT metabolized | Compound NOT metabolized | Compound NOT metabolized | Compound NOT metabolized | Compound NOT metabolized | Compound NOT metabolized | Compound NOT metabolized | Compound NOT metabolized | Compound NOT metabolized | Compound NOT metabolized | Compound NOT metabolized | Compound NOT metabolized | Compound NOT metabolized | Compound NOT metabolized | Compound NOT metabolized
